biological target: MAGE-A11:PCF11 (Homo sapiens (Human), UniProt P43364); assay: TR-FRET single point screening at 15 μM; type: binding; parameters: unit not given here; conditions: single point TR-FRET screening at 15 μM against MAGE-A11:PCF11
In short: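 Single-point screen at 15 μM (0.25% DMSO) measuring disruption of GST-MAGEA11 (5 nM) binding to FAM-PCF11_4 peptide (200 nM) detected by Tb-anti-GST (5 nM). Buffer 50 mM Tris pH 7.5, 20 mM MgCl2, 0.1 mg/ml BSA, 1 mM DTT; 90 min at ~25 °C; 520/490 nm ratio converted to % inhibition versus controls.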

MAGE-A11:PCF11, sequence (P43364 218-429): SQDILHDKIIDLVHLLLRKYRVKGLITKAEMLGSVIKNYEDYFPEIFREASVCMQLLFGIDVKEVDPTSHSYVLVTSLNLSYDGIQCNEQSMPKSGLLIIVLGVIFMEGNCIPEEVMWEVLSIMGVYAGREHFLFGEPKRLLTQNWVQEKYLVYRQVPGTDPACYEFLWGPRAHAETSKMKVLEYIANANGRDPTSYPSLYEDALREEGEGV

In order of falling TR-FRET signal:
1. FC(F)(F)Oc1cccc(CN(CCCCNc2ccnc3cc(Cl)ccc23)Cc2ccccc2)c1 [SJ000520457]  33.31
2. COc1ccc(C(F)(F)F)cc1CN(CCCCNc1ccnc2cc(Cl)ccc12)Cc1ccccc1 [SJ000520444]  31.82
3. CCCCCCN1CCC(Nc2ccnc3cc(Cl)ccc23)CC1 [SJ000523108]  29.3
4. CCCCCCN(CCCCNc1ccnc2cc(Cl)ccc12)Cc1ccccc1 [SJ000361212]  23.58
5. Clc1ccc2c(NCCCCN(CCc3ccccc3)Cc3ccccc3)ccnc2c1 [SJ000361211]  23.38
6. Clc1ccc2c(NCCCCN(Cc3ccccc3)Cc3ccc(Br)s3)ccnc2c1 [SJ000312688]  22.04
7. COc1ccc(F)cc1CN(CCCCNc1ccnc2cc(Cl)ccc12)Cc1ccccc1 [SJ000357496]  20.78
8. Clc1ccc2c(NCCCCN(Cc3ccccc3)CC3CC3)ccnc2c1 [SJ000357485]  18.34
9. Cc1[nH]cnc1CN(CCCCNc1ccnc2cc(Cl)ccc12)Cc1ccccc1 [SJ000520428]  15.11
10. Clc1ccc2c(NCCCCN(Cc3ccccc3)Cc3ccc(Br)o3)ccnc2c1 [SJ000312684]  14.96
11. Fc1ccc(CN2CCC(Nc3ccnc4cc(Cl)ccc34)CC2)cc1 [SJ000523093]  10.66
12. CCC(CC)CN1CCC(Nc2ccnc3cc(Cl)ccc23)CC1 [SJ000523086]  9.754
13. CCN1CCN(c2c(S(=O)(=O)c3ccc(C)cc3)cnc3cc(OC)c(OC)cc23)CC1 [SJ000083965]  7.146
14. COc1ccc(CN(CCCCNc2ccnc3cc(Cl)ccc23)Cc2ccccc2)cc1 [SJ000522724]  6.683
15. COc1ccc(F)cc1CN1CCC(Nc2ccnc3cc(Cl)ccc23)CC1 [SJ000357493]  6.153
16. CCCN(CCCCNc1ccnc2cc(Cl)ccc12)Cc1cc(F)ccc1OC [SJ000311202]  5.396
17. CCOC(=O)c1cnc2c(Cl)c(Cl)ccc2c1NCCN(C)C [SJ000027266]  2.575
18. CCc1ccc2ncc(S(=O)(=O)c3ccc(C)cc3)c(N3CCN(CC)CC3)c2c1 [SJ000083962]  2.377
19. CCOC(=O)c1ccc2ncc(C(=O)OCC)c(NCCN3CCOCC3)c2c1 [SJ000031347]  0.6542
20. CCOC(=O)c1cnc2ccc(C)cc2c1NCCN1CCOCC1 [SJ000027268]  −0.3915
21. CCCN(CCCCNc1ccnc2cc(Cl)ccc12)Cc1ccc[nH]1 [SJ000311198]  −0.9977
22. COc1ccc2ncc(S(=O)(=O)c3ccc(Cl)cc3)c(N3CCN(C)CC3)c2c1 [SJ000083952]  −3.658
23. CCOc1ccc2ncc(S(=O)(=O)c3ccccc3)c(N3CCN(C)CC3)c2c1 [SJ000083948]  −3.938
24. Clc1ccc2c(NC3CCN(Cc4ccc(Br)o4)CC3)ccnc2c1 [SJ000357512]  −4.381
25. CCOC(=O)c1cnc2ccc(OCC)cc2c1N1CCN(C)CC1 [SJ000279526]  −7.064
26. Cc1ccc(S(=O)(=O)c2cnc3ccc(F)cc3c2N2CCN(C)CC2)cc1C [SJ000247344]  −7.627
27. CCOC(=O)c1cnc2ccc(C(=O)OC)cc2c1NCCN1CCOCC1 [SJ000127079]  −7.813
28. CCOc1ccc2ncc(C(=O)c3ccc(C)cc3)c(N3CCN(C)CC3)c2c1 [SJ000247254]  −10.61
29. CN1CCN(c2c(S(=O)(=O)c3ccccc3)cnc3ccc(F)cc23)CC1 [SJ000083949]  −11.5
30. CCOC(=O)c1cnc2c(Cl)cc(Cl)cc2c1NCCN1CCOCC1 [SJ000175864]  −13.06
31. COc1ccc(N2CCN(c3c(S(=O)(=O)c4ccccc4)cnc4ccc(Cl)cc34)CC2)cc1 [SJ000083983]  −17.94
32. Cc1ccc(S(=O)(=O)c2cnc3ccccc3c2N2CCN(c3ccc(F)cc3)CC2)cc1 [SJ000117057]  −20.61
33. COc1ccc(S(=O)(=O)N2CCN(c3ccnc4cc(Cl)ccc34)CC2)cc1 [SJ000199955]  −32.07
34. O=S(=O)(c1ccccc1)c1cnc2ccc(F)cc2c1N1CCN(Cc2ccccc2)CC1 [SJ000247257]  −62.28
35. CCCN(CCCNc1c2ccc(Cl)cc2nc2ccc(OC)cc12)Cc1ccc(CC)cc1 [SJ000522972]  −105.1
36. CCCN(CCCNc1c2ccc(Cl)cc2nc2ccc(OC)cc12)Cc1ccc(C)s1 [SJ000520927]  −124.8
37. CCCN(CCCNc1c2ccc(Cl)cc2nc2ccc(OC)cc12)Cc1ccc(F)cc1 [SJ000520946]  −141.7
38. CCCCCCN(CCC)CCCNc1c2ccc(Cl)cc2nc2ccc(OC)cc12 [SJ000520963]  −153.7
39. CCCN(CCCNc1c2ccc(Cl)cc2nc2ccc(OC)cc12)Cc1c[nH]c2ccccc12 [SJ000522978]  −166.2
40. CCOc1ccc2ncc(S(=O)(=O)c3ccccc3)c(N3CCN(c4ccc(F)cc4)CC3)c2c1 [SJ000083979]  −181.3
41. COc1ccc2nc3cc(Cl)ccc3c(NCCCNCc3cn(C)c4ccccc34)c2c1 [SJ000520987]  −252.4
42. CCCN(CCCNc1c2ccc(Cl)cc2nc2ccc(OC)cc12)CCCc1ccccc1 [SJ000520958]  −267.2
43. CCCN(CCCNc1c2ccc(Cl)cc2nc2ccc(OC)cc12)CC1CC1 [SJ000520936]  −271.4
44. COc1ccc2nc3cc(Cl)ccc3c(NCCCNCCC(C)c3ccccc3)c2c1 (centres unmarked) [SJ000523027]  −340.3
45. COc1ccc2nc3cc(Cl)ccc3c(NCCCNCc3ccccc3F)c2c1 [SJ000523034]  −353.8
46. COc1ccc(F)c(CNCCCNc2c3ccc(Cl)cc3nc3ccc(OC)cc23)c1 [SJ000520998]  −355
47. COc1ccc2nc3cc(Cl)ccc3c(NCCCNCC3CCCCC3)c2c1 [SJ000361090]  −411.2
48. COc1ccc2nc3cc(Cl)ccc3c(NCCCNCc3cccs3)c2c1 [SJ000361088]  −453.5

same assay, conditions: single point TR-FRET screening of quinoline compounds against MAGE-A11:PCF11; 15 μM

In order of falling TR-FRET signal:
1. Clc1ccc2c(NCCCNCc3ccc[nH]3)ccnc2c1 [SJ000575192]  52.99
2. CCCN(CCCNc1ccnc2cc(Cl)ccc12)Cc1ccc(CC)cc1 [SJ000523001]  30.13
3. CCCCCN(CCCNc1ccnc2cc(Cl)ccc12)Cc1ccccc1 [SJ000361173]  26.56
4. CCCN(CCCNc1ccnc2cc(C(F)(F)F)ccc12)Cc1ccc(F)cc1 [SJ000523070]  26.44
5. CCCN(CCCNc1ccnc2cc(C(F)(F)F)ccc12)Cc1cn(C)c2ccccc12 [SJ000520469]  25.54
6. CCCN(CCCNc1ccnc2cc(C(F)(F)F)ccc12)Cc1ccco1 [SJ000361265]  24.11
7. CCC(CC)CN(CCCNc1ccnc2cc(Cl)ccc12)Cc1ccccc1 [SJ000361172]  22.91
8. Clc1ccc2c(NCCCN(Cc3ccccc3)Cc3ccc[nH]3)ccnc2c1 [SJ000522717]  20.46
9. FC(F)(F)Oc1ccccc1CN(CCCNc1ccnc2cc(Cl)ccc12)Cc1ccccc1 [SJ000357599]  19.76
10. Oc1ccccc1CN(CCCNc1ccnc2cc(Cl)ccc12)Cc1ccccc1 [SJ000361167]  19.27
11. CCc1ccc(CN(CCCNc2ccnc3cc(Cl)ccc23)Cc2ccccc2)cc1 [SJ000520442]  18.89
12. CCCN(CCCNc1ccnc2cc(Cl)ccc12)Cc1ccc2c(c1)OCO2 [SJ000522753]  18.75
13. CC(CCN(CCCNc1ccnc2cc(Cl)ccc12)Cc1ccccc1)c1ccccc1 (centres unmarked) [SJ000311184]  17.35
14. CCCN(CCCNc1ccnc2cc(Cl)ccc12)Cc1cc(F)cc(F)c1O [SJ000357597]  15.96
15. CCCN(CCCNc1ccnc2cc(C(F)(F)F)ccc12)Cc1cc(F)ccc1OC [SJ000520475]  15.75
16. CCCN(CCCNc1ccnc2cc(Cl)ccc12)Cc1cc(OC(F)(F)F)ccc1OC [SJ000523011]  15.67
17. Clc1ccc2c(NCCCNCc3ccsc3)ccnc2c1 [SJ000523052]  15.25
18. Cc1ccc(CNCCCNc2ccnc3cc(C(F)(F)F)ccc23)o1 [SJ000361109]  14.45
19. CCCN(CCCNc1c2ccc(Cl)cc2nc2ccc(OC)cc12)Cc1ccccc1C(F)(F)F [SJ000520928]  14.17
20. COc1cccc(CN(CCCNc2ccnc3cc(Cl)ccc23)Cc2ccccc2)c1O [SJ000357465]  13.17
21. CCCN(CCCNc1ccnc2cc(C(F)(F)F)ccc12)Cc1cc2ccccc2s1 [SJ000520482]  13.01
22. CCCN(CCCNc1ccnc2cc(Cl)ccc12)CC1CCOC1 (centres unmarked) [SJ000523016]  9.664
23. CCCN(CCCNc1ccnc2cc(Cl)ccc12)CCCSC [SJ000357576]  7.824
24. CCCN(CCCNc1ccnc2cc(Cl)ccc12)Cc1ccsc1 [SJ000522744]  7.824
25. O=[N+]([O-])c1ccc(CNCCCNc2ccnc3cc(Cl)ccc23)s1 [SJ000520912]  6.284
26. Clc1ccc2c(NCCCN(Cc3ccccc3)Cc3cc4ccccc4o3)ccnc2c1 [SJ000520461]  5.6
27. Clc1ccc2c(NCCCN(Cc3ccccc3)Cc3cccs3)ccnc2c1 [SJ000312672]  4.744
28. CCCN(CCCNc1ccnc2cc(Cl)ccc12)Cc1nc(C)cs1 [SJ000522997]  3.413
29. CCCN(CCCNc1ccnc2cc(Cl)ccc12)Cc1ccccn1 [SJ000522743]  1.313
30. CCCN(CCCNc1c2ccc(Cl)cc2nc2ccc(OC)cc12)Cc1cccnc1Br [SJ000522977]  0.2567
31. COc1ccc2nc3cc(Cl)ccc3c(NCCCNCc3cccc(C)c3)c2c1 [SJ000522956]  −7.089
32. CCCN(CCCNc1ccnc2cc(C(F)(F)F)ccc12)Cc1ccccc1[N+](=O)[O-] [SJ000523071]  −7.745
